Assay results: article PMC11995724, “Antibiotic target discovery by integrated phenotypic and activity-based profiling of electrophilic fragments” (Cell chemical biology, 2025)

Experiment: in vitro
Conditions: human, hek293t cells

SMILES	viability at 48 h, 25 µM
Cc1ccc(C=C(C#N)C(=O)NC2CCCCC2)cc1C [8-G10, 2-cyano-N-cyclohexyl-3-(3,4-dimethylphenyl)prop-2-enamide]	59.4%
CCc1ccc(C=C(C#N)C(=O)Nc2cc(C)c(Cl)cc2OC)cc1 [8-G11, N-(4-chloro-2-methoxy-5-methylphenyl)-2-cyano-3-(4-ethylphenyl)prop-2-enamide]	92%
CC(C)NC(=O)C(C#N)=Cc1ccc(OC(C)C)cc1 [8-G12, 2-cyano-N-(propan-2-yl)-3-[4-(propan-2-yloxy)phenyl]prop-2-enamide]	64.9%
N#CC(=Cc1cccs1)C(=O)Nc1nccs1 [8-G13, 2-cyano-N-(1,3-thiazol-2-yl)-3-(thiophen-2-yl)prop-2-enamide]	110%
Cc1cc(C=C(C#N)C(=O)NCc2ccccc2)c(C)n1C1CC1 [8-G14, N-benzyl-2-cyano-3-(1-cyclopropyl-2,5-dimethyl-1H-pyrrol-3-yl)prop-2-enamide]	74%
CSc1ccc(C=C(C#N)C(=O)Nc2c(C)cc(C)cc2C)cc1 [8-G15, 2-cyano-3-[4-(methylsulfanyl)phenyl]-N-(2,4,6-trimethylphenyl)prop-2-enamide]	111%
Cc1ccc(C=C(C#N)C(=O)Nc2ccccc2C)cc1 [8-G16, 2-cyano-N-(2-methylphenyl)-3-(4-methylphenyl)prop-2-enamide]	118%
N#CC(=Cc1ccccc1)C(=O)NC1CCCCCCC1 [8-G17, 2-cyano-N-cyclooctyl-3-phenylprop-2-enamide]	46.6%
COc1cccc(NC(=O)C(C#N)=Cc2ccc(C#N)cc2)c1 [8-G18, 2-cyano-3-(4-cyanophenyl)-N-(3-methoxyphenyl)prop-2-enamide]	60.2%
COc1ccc(C=C(C#N)C(=O)Nc2nccs2)cc1O [8-G19, 2-cyano-3-(3-hydroxy-4-methoxyphenyl)-N-(1,3-thiazol-2-yl)prop-2-enamide]	85%
CC1(C)Cc2cc(C=C(C#N)C(=O)Nc3ccccc3F)ccc2O1 [8-G20, 2-cyano-3-(2,2-dimethyl-2,3-dihydro-1-benzofuran-5-yl)-N-(2-fluorophenyl)prop-2-enamide]	68%
CCOc1ccccc1NC(=O)C(C#N)=Cc1c(F)cccc1F [8-G21, 2-cyano-3-(2,6-difluorophenyl)-N-(2-ethoxyphenyl)prop-2-enamide]	78.1%
CCOc1ccc(C=C(C#N)C(=O)N2CCc3sccc3C2)cc1 [8-G22, 3-(4-ethoxyphenyl)-2-{4H,5H,6H,7H-thieno[3,2-c]pyridine-5-carbonyl}prop-2-enenitrile]	61.5%
N#CC(=Cc1ccc2c(c1)OCCO2)C(=O)NCc1ccccc1 [8-H03, N-benzyl-2-cyano-3-(2,3-dihydro-1,4-benzodioxin-6-yl)prop-2-enamide]	127%
N#CC(=Cc1cccc(F)c1F)C(=O)NC(N)=O [8-H04, {2-cyano-2-[(2,3-difluorophenyl)methylidene]acetyl}urea]	89.9%
CCCn1c(C)cc(C=C(C#N)C(=O)Nc2ccccc2)c1C [8-H05, 2-cyano-3-(2,5-dimethyl-1-propyl-1H-pyrrol-3-yl)-N-phenylprop-2-enamide]	108%
N#CC(=Cc1c[nH]nc1-c1ccccc1F)C(=O)Nc1ccccc1F [8-H06, 2-cyano-N-(2-fluorophenyl)-3-[3-(2-fluorophenyl)-1H-pyrazol-4-yl]prop-2-enamide]	90.8%
COc1cc(C=C(C#N)C(=O)Nc2ccc(F)cc2)cc(Cl)c1O [8-H07, 3-(3-chloro-4-hydroxy-5-methoxyphenyl)-2-cyano-N-(4-fluorophenyl)prop-2-enamide]	87.7%
COc1ccccc1NC(=O)C(C#N)=Cc1ccco1 [8-H08, 2-cyano-3-(furan-2-yl)-N-(2-methoxyphenyl)prop-2-enamide]	93%
Cc1ccccc1NC(=O)C(C#N)=Cc1cccc2ccccc12 [8-H09, 2-cyano-N-(2-methylphenyl)-3-(naphthalen-1-yl)prop-2-enamide]	88.4%
N#CC(C(=O)Nc1ccccc1)=C1NCCCN1 [8-H10, 2-cyano-2-(1,3-diazinan-2-ylidene)-N-phenylacetamide]	97.7%
Cc1ccc(NC(=O)C(C#N)=Cc2cccc(C(F)(F)F)c2)c(C)c1 [8-H11, 2-cyano-N-(2,4-dimethylphenyl)-3-[3-(trifluoromethyl)phenyl]prop-2-enamide]	75%
Cc1ccc(C=C(C#N)C(=O)NCCc2ccccc2)o1 [8-H12, 2-cyano-3-(5-methylfuran-2-yl)-N-(2-phenylethyl)prop-2-enamide]	118%
COc1ccc(C=C(C#N)C(=O)NC2CCCCC2)cc1O [8-H13, 2-cyano-N-cyclohexyl-3-(3-hydroxy-4-methoxyphenyl)prop-2-enamide]	86.5%
CCCCNC(=O)C(C#N)=Cc1ccc(F)cc1F [8-H14, N-butyl-2-cyano-3-(2,4-difluorophenyl)prop-2-enamide]	103%

SMILES	viability at 48 h, 25 µM
CC(C)NC(=O)C(C#N)=Cc1cccs1 [8-H15, 2-cyano-N-(propan-2-yl)-3-(thiophen-2-yl)prop-2-enamide]	117%
N#CC(=Cc1cn(-c2ccccc2)nc1-c1ccc(Cl)cc1)C(N)=O [8-H16, 3-[3-(4-chlorophenyl)-1-phenyl-1H-pyrazol-4-yl]-2-cyanoprop-2-enamide]	125%
N#CC(=Cc1ccc(Cl)cc1Cl)C(N)=O [8-H17, 2-cyano-3-(2,4-dichlorophenyl)prop-2-enamide]	93.6%
N#CC(=Cc1ccccc1OC(F)F)C(=O)NC1CCCCC1 [8-H18, 2-cyano-N-cyclohexyl-3-[2-(difluoromethoxy)phenyl]prop-2-enamide]	20.8%
COc1ccc(C=C(C#N)C(=O)Nc2ccc3c(c2)OCCO3)cc1O [8-H19, 2-cyano-N-(2,3-dihydro-1,4-benzodioxin-6-yl)-3-(3-hydroxy-4-methoxyphenyl)prop-2-enamide]	99.8%
CN1C=C(C(F)(F)F)C=CC1=C(C#N)C(=O)Nc1ccccc1F [8-H20, 2-cyano-N-(2-fluorophenyl)-2-[1-methyl-5-(trifluoromethyl)-1,2-dihydropyridin-2-ylidene]acetamide]	90.1%
COc1cc(C=C(C#N)C(=O)NC2CCCCC2)cc(Cl)c1O [8-H21, 3-(3-chloro-4-hydroxy-5-methoxyphenyl)-2-cyano-N-cyclohexylprop-2-enamide]	92.7%
N#CC(C(=O)Nc1ccc(Cl)cc1)=C(S)Nc1ccccc1 [8-H22, N-(4-chlorophenyl)-2-cyano-3-(phenylamino)-3-sulfanylprop-2-enamide]	78.8%
COc1ccc(C=C(C#N)C(=O)Nc2cccc([N+](=O)[O-])c2)cc1 [8-I03, 2-cyano-3-(4-methoxyphenyl)-N-(3-nitrophenyl)prop-2-enamide]	105%
COc1ccc(NC(=O)C(C#N)=Cc2c(C)n[nH]c2C)cc1 [8-I04, 2-cyano-3-(3,5-dimethyl-1H-pyrazol-4-yl)-N-(4-methoxyphenyl)prop-2-enamide]	84.7%
COc1ccc(C=C(C#N)C(=O)Nc2ccc(C)c(C)c2)cc1 [8-I05, 2-cyano-N-(3,4-dimethylphenyl)-3-(4-methoxyphenyl)prop-2-enamide]	87.4%
CC1CCCCC1NC(=O)C(C#N)=Cc1ccc(N2CCOCC2)cc1 (centres unmarked) [8-I06, 2-cyano-N-(2-methylcyclohexyl)-3-[4-(morpholin-4-yl)phenyl]prop-2-enamide]	52.8%
Cc1cccc(C)c1NC(=O)C(C#N)=Cc1ccsc1 [8-I07, 2-cyano-N-(2,6-dimethylphenyl)-3-(thiophen-3-yl)prop-2-enamide]	85.3%
CC(C)NC(=O)C(C#N)=Cc1cnn(-c2ccc(Cl)cc2)c1 [8-I08, 3-[1-(4-chlorophenyl)-1H-pyrazol-4-yl]-2-cyano-N-(propan-2-yl)prop-2-enamide]	77.6%
COc1ccc(C=C(C#N)C(=O)Nc2cccc(Cl)c2)cc1 [8-I09, N-(3-chlorophenyl)-2-cyano-3-(4-methoxyphenyl)prop-2-enamide]	80%
N#CC(=Cc1cc(F)ccc1F)C(=O)Nc1ccc2c(c1)OCCO2 [8-I10, 2-cyano-3-(2,5-difluorophenyl)-N-(2,3-dihydro-1,4-benzodioxin-6-yl)prop-2-enamide]	53.5%
CSc1ccc(C=C(C#N)C(=O)N2CCCC2)cc1 [8-I11, 3-[4-(methylsulfanyl)phenyl]-2-(pyrrolidine-1-carbonyl)prop-2-enenitrile]	106%
N#CC(=Cc1cc(F)ccc1F)C(=O)NC1CCCC1 [8-I12, 2-cyano-N-cyclopentyl-3-(2,5-difluorophenyl)prop-2-enamide]	16.8%
Cc1cc(C)c(NC(=O)C(C#N)=Cc2ccc(C(C)(C)C)cc2)c(C)c1 [8-I13, 3-(4-tert-butylphenyl)-2-cyano-N-(2,4,6-trimethylphenyl)prop-2-enamide]	9.25%
N#CC(=Cc1cccc(O)c1)C(=O)Nc1ccc(N2CCOCC2)cc1 [8-I14, 2-cyano-3-(3-hydroxyphenyl)-N-[4-(morpholin-4-yl)phenyl]prop-2-enamide]	82.5%
N#CC(=Cc1ccsc1)C(=O)NCc1ccc(Cl)cc1 [8-I15, N-[(4-chlorophenyl)methyl]-2-cyano-3-(thiophen-3-yl)prop-2-enamide]	101%
Cc1cccc(NC(=O)C(C#N)=Cc2ccc(F)c(F)c2)c1 [8-I16, 2-cyano-3-(3,4-difluorophenyl)-N-(3-methylphenyl)prop-2-enamide]	75.5%
N#CC(=Cc1ccc([N+](=O)[O-])o1)C(=O)NCc1ccco1 [8-I17, 2-cyano-N-[(furan-2-yl)methyl]-3-(5-nitrofuran-2-yl)prop-2-enamide]	1.08%
N#CC(=Cc1ccc(F)cc1)C(=O)Nc1ccccc1C(F)(F)F [8-I18, 2-cyano-3-(4-fluorophenyl)-N-[2-(trifluoromethyl)phenyl]prop-2-enamide]	81.7%
CC(C)NC(=O)C(C#N)=Cc1ccc(-c2ccc([N+](=O)[O-])cc2)o1 [8-I19, 2-cyano-3-[5-(4-nitrophenyl)furan-2-yl]-N-(propan-2-yl)prop-2-enamide]	93%
